“Also recorded” adds a separate entry of the source.
Tests used:
[1] = molecular target: T1, bond of purified uPAR to the VN (Homo sapiens, UniProt Q03405); assay: Bond of soluble biotinylated uPAR to immobilized VN (ELISA); format: binding; conditions: FIG. 2(A): compounds at 50 µM vs DMSO vehicle (100%)
T1 construct: Soluble recombinant uPAR (suPAR; R&D System, Minneapolis, MN, USA); purchased R&D System
Procedure: Soluble recombinant uPAR (suPAR; R&D System, Minneapolis, MN, USA) was biotinylated and purified with the biotinylation module of the proteins ECL Amersham according to the producer’s instructions (GE Healthcare, Buckinghamshire, UK).
The (high-binding) plates with 96 wells (Corning, New York, USA) were covered with 0.5 µg/well of VN (Becton Dickinson Biosciences, Franklin Lakes, NJ, USA) diluted in PBS (0.08 M NaCl, 0.002 M KCl, 0.0115 M Na2HPO4, 0.002 M KH2PO4, pH 7.2) or bovine serum albumin (BSA), as negative control, and incubated at 4° C. for the entire night. After a washing in PBS, the residual bond sites were blocked with 200 µL of BSA at 1% in PBS, for 1 hour at ambient temperature. 25 nmol/L of biotinylated s-uPAR (diluted in PBS, 1 mg/mL of BSA), on its own or in the presence of selected compounds, were placed in the covered wells. The plates were maintained at 4° C. for 1 hour, washed with PBS containing 0.1% Tween 20 and then avidin marked with peroxidase (Amersham), diluted 1:1.500 in PBS containing 10 mg/mL of BSA. After further washings, the substrate of peroxidase o-phenylenediamine (Sigma, St. Louis, MO, USA) was added and left to react for 3 minutes. The reactions were stopped with 1 mol/L H2SO4 and the product was measured at 492 nm by using an automated plate reader (Bio-Rad, Munich, Germany).

BJ cells = assay: Cell adhesion assay to VN on BJ cells; format: cell-based, human; conditions: FIG. 2(B): BJ cells treated with compounds at 50 µM vs DMSO vehicle (100%)
Procedure: The cell line BJ (ATCC CRL2522) was used as model of human skin fibroblasts. The cells were cultivated in Dulbecco’s Modified Eagle Medium (DMEM) containing fetal bovine serum at 10% (FBS) at 37° C. with CO2 at 5%.
The plates with 96 wells (Nunc, Roskilde, Denmark) were covered with VN (1 µg) or with 100 µl of 1% BSA deactivated with heat in PBS, as negative control, and incubated during the entire night at 4° C. The plates were then blocked 1 hour at ambient temperature with 1% BSA deactivated with heat in 1% PBS. The cells were detached with PBS containing 2 mM of EDTA and washed with DMEM lacking serum, they were counted, plated in the wells with a density of 10^5 cells/well and incubated for 1 hour at 37° C. in the presence of or in the absence of the selected compounds. The cells were then fixed with paraformaldehyde at 3% in PBS for 10 minutes and then incubated with methanol at 2% for 10 minutes. The cells were finally colored for 10 minutes with 0.5% crystal violet in 20% methanol, eluted with 0.1 mol/l of sodium citrate in 50% ethanol (pH 4.2) and the absorbance was measured at 540 nm with a spectrophotometer.

T1 sequence (Q03405 23-305 limits assumed): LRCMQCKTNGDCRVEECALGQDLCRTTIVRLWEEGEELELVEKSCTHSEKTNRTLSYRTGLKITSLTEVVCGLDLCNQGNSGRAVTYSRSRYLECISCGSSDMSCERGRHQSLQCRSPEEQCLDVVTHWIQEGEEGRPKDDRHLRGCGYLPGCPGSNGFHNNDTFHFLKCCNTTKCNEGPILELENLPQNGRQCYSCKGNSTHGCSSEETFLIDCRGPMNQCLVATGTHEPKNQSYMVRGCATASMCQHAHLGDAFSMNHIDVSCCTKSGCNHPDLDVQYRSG

Compound | inhibitory activity against the interaction of the uPAR with the VN in vitro [1] | inhibitory activity against cell adhesion to the VN (BJ cells)
CC(C)(C)c1cc(Cl)c(O)c(Cc2cc(C(C)(C)C)cc(Cl)c2O)c1 [Compound 23, 6,6′-methylenebis(4-(tert-butyl)-2-chlorophenol)] | greater inhibitory activity | greater inhibitory activity; also recorded: considerable contribution
Cc1cc(Cc2cc(C)cc(C(C)(C)C)c2O)c(O)c(C(C)(C)C)c1 [Compound 20, 6,6′-methylenebis(2-(tert-butyl)-4-methylphenol)] | greater inhibitory activity | greater inhibitory activity; also recorded: considerable contribution
Cc1ccc(C(C)(C)c2ccc(C)cc2O)c(O)c1 [Compound 3, 6,6′-(propan-2,2-diyl)bis(3-methylphenol)] | greater inhibitory activity | greater inhibitory activity
CCCc1cc(-c2ccc(O)c(CCC)c2)ccc1O [Compound 19, 3,3′-dipropyl[1,1′-biphenyl]-4,4′-diol] | greater inhibitory activity | greater inhibitory activity; also recorded: considerable contribution

Reference: patent US20230149323A1, “INHIBITORS OF THE INTERACTION OF THE UPAR/FPRS RECEPTORS” (ORPHA BIOTECH S.R.L., priority 2020, published 2023)
